Read-outs that look alike come from different tables or passages of the source.
Key:
[1] = Raw material test against sweat odour (masking of malodour standard, assessor panel)
[2] = Application test in the formulations (smelling strips, assessor panel); design: Malodour reduction value: scale not given here; conditions: smelling strip, 1 μl 3-mercapto-3-methyl-hexan-1-ol solution (0.001% in DPG), at least 12 experts
Protocol: Mixtures A-C and the fragrances of Table 4 were incorporated in the formulations of Examples 3-12 as perfume oil. […] The coding smelling strips were evaluated sensorily by a group of assessors of at least 12 experts.

[3] = Table 1, 1 μl fragrance + 5 μl 3-mercapto-3-methyl-hexan-1-ol (0.1% in DPG) in 7 l air, 15 h at approx. 20° C., scale 1 to 9, malodour standard mixture = 6, mean of at least 8 assessors
[4] = Table 2 (raw materials without adequate malodour-reducing action), 1 μl fragrance + 5 μl 3-mercapto-3-methyl-hexan-1-ol (0.1% in DPG) in 7 l air, 15 h, scale 1 to 9, standard = 6
[5] = Table 4, tests with the mixtures (Example 2), according to the raw material test method
[6] = in EXAMPLE 3: ROLL-ON DEODORANT GEL
[7] = in EXAMPLE 6: GEL AIR FRESHENER
[8] = in EXAMPLE 7: AEROSOL DEODORANT
[9] = in EXAMPLE 9: HAIR SETTING LOTION
[10] = Table 3 (adequate malodour-reducing action but significant increase in intensity), 1 μl fragrance + 5 μl 3-mercapto-3-methyl-hexan-1-ol (0.1% in DPG) in 7 l air, 15 h, scale 1 to 9, standard = 6
[11] = prior-art fragrances examined by the applicant

Compound: CC(=O)OCC(C)CC(C)(C)c1ccccc1 (stereo not shown) [ACETIC ACID-2,4-DIMETHYL-4-PHENYLPENTYL ESTER]
- Increase In intensity [1, 3]: 1.6
- Odour reduction value [1, 3]: 3.4

Compound: CC1=C[C@H](C)[C@H](C=O)CC1 (relative stereo)
- Increase In intensity [1, 3]: −1.3
- Odour reduction value [1, 3]: 4.4

Compound: CCOC(C)=O [ETHYL ACETATE]
- Increase in intensity [1, 4]: −0.9
- Malodour reduction value [1, 4]: 1.1
- Increase in intensity [1, 5]: −1.1
- Malodour reduction value [1, 5]: 1.1
- Increase in intensity [2, 6]: −0.1
- Malodour reduction value [2, 6]: 0.5
- Increase in intensity ([2]; in EXAMPLE 4: W/O CREAM): 0.0
- Malodour reduction value ([2]; in EXAMPLE 4: W/O CREAM): 1.0
- Increase in intensity ([2]; in EXAMPLE 5: O/W LOTION): 0.5
- Malodour reduction value ([2]; in EXAMPLE 5: O/W LOTION): 0.5
- Increase in intensity [2, 7]: 0.5
- Malodour reduction value [2, 7]: 0.8
- Increase in intensity [2, 8]: −0.5
- Malodour reduction value [2, 8]: 1.1
- Increase in intensity ([2]; in EXAMPLE 8: FOOT CREAM): 0.5
- Malodour reduction value ([2]; in EXAMPLE 8: FOOT CREAM): 0.8
- Increase in intensity [2, 9]: −0.5
- Malodour reduction value [2, 9]: 1.2
- Increase in intensity ([2]; in EXAMPLE 10: CARE MASK): 0.8
- Malodour reduction value ([2]; in EXAMPLE 10: CARE MASK): 1.2
- Increase in intensity ([2]; in EXAMPLE 11: SKIN OIL): −0.5
- Malodour reduction value ([2]; in EXAMPLE 11: SKIN OIL): 0.3
- Increase in intensity ([2]; in EXAMPLE 12: OINTMENT): −0.6
- Malodour reduction value ([2]; in EXAMPLE 12: OINTMENT): 0.0

Compound: CC(C)=CCOC(=O)c1ccccc1O [SALICYLIC ACID PRENYL ESTER]
- Increase In intensity [1, 3]: 0.2
- Odour reduction value [1, 3]: 3.6

Compound: CCCCCCC1(C)CCC(=O)O1 (stereo not shown) [4-METHYL-GAMMA-DECALACTONE]
- Increase In intensity [1, 3]: 0.9
- Odour reduction value [1, 3]: 5.6

Compound: CC=Cc1ccc(OC)cc1 [1-METHOXY-4-PROPENYL BENZENE, reference compound]
- Increase in intensity [1, 4]: 2.0
- Malodour reduction value [1, 4]: 2.0

Compound: C=CC(C)(O)CCC=C(C)CC (stereo not shown)
- Increase In intensity [1, 3]: 1.0
- Odour reduction value [1, 3]: 3.1

Compound: COCc1ccccc1O [2-METHOXYMETHYLPHENOL]
- Increase In intensity [1, 3]: −2.1
- Odour reduction value [1, 3]: 3.8

Compound: CCC(O)CC[C@H]1[C@@H](C)CCCC1(C)C (relative stereo)
- Increase In intensity [1, 3]: 0.8
- Odour reduction value [1, 3]: 3.1

Compound: C=CC(C)(O)CCC=C(C)C (stereo not shown) [LINALOOL]
- Increase In intensity [1, 3]: 1.0
- Odour reduction value [1, 3]: 5.0

Compound: CC(=O)OC/C=C(\C)CCC=C(C)C [GERANYL ACETATE, reference compound]
- Increase in intensity [1, 10]: 2.2
- Malodour-reduction value [1, 10]: 3.0

Compound: CC(=CO)CCC1CC=C(C)C1(C)C (stereo not shown)
- Increase In intensity [1, 3]: 0.3
- Odour reduction value [1, 3]: 3.8>

Compound: O=C1CCCCCC/C=C/CCCCCCC1 [(E)-8-CYCLOHEXADECEN-1-ONE]
- Increase In intensity [1, 3]: 0.2
- Odour reduction value [1, 3]: 4.0

Compound: c1ccc2c(c1)CC1COCOC21 (stereo not shown) [1,4A,9,9A-TETRAHYDRO-2,4-DIOXA-FLUORENE]
- Increase In intensity [1, 3]: 1.0
- Odour reduction value [1, 3]: 4.3

Compound: Cc1cccc(CC(C)(C)C(C)O)c1 (stereo not drawn) [ALPHA.BETA.BETA.3-TETRAMETHYL-BENZENE PROPANOL]
- Increase In intensity [1, 3]: 0.2
- Odour reduction value [1, 3]: 4.6

Compound: CC(C)=CCCC(C)CCOCC=O (stereo not shown)
- Increase In intensity [1, 3]: 1.5
- Odour reduction value [1, 3]: 3.8

Compound: CCCCCC(C=O)=Cc1ccccc1 [reference compound]
- Increase in intensity [1, 4]: 1.0
- Malodour reduction value [1, 4]: 0.0

Compound: O=C1CCCCCCCCCCCCCCO1 [1.15-PENTADECANOLIDE]
- Increase In intensity [1, 3]: 1.1
- Odour reduction value [1, 3]: 3.6

Compound: CC(C)=CCCC(C)CC#N (stereo not shown) [3,7-DIMETHYL-6-OCTENE NITRILE]
- Increase In intensity [1, 3]: 0.5
- Odour reduction value [1, 3]: 4.5

Compound: COCc1ccc(O)c(OC)c1 [2-METHOXY-4-METHOXYMETHYL-PHENOL]
- Increase In intensity [1, 3]: −0.1
- Odour reduction value [1, 3]: 4.1

Compound: CCOC(C=C(C)CCC=C(C)C)OCC
- Increase In intensity [1, 3]: −0.7
- Odour reduction value [1, 3]: 4.3

Compound: C=CC(C)(C#N)Cc1ccccc1 (stereo not drawn) [ALPHA-ETHENYL-ALPHA-METHYL-BENZENE PROPANE NITRILE]
- Increase In intensity [1, 3]: 1.0
- Odour reduction value [1, 3]: 4.2

Compound: CC(CC#N)CCc1ccccc1 (stereo not shown) [2-METHYL-4-PHENYL BUTYL CYANIDE]
- Increase In intensity [1, 3]: 0.2
- Odour reduction value [1, 3]: 5.3

Compound: COc1ccc(C=O)cc1 [4-METHOXYBENZALDEHYDE]
- Increase In intensity [1, 3]: 1.0
- Odour reduction value [1, 3]: 4.7

Compound: CCCCCCCC=O [OCTANAL, reference compound]
- Increase in intensity [1, 4]: 0.9
- Malodour reduction value [1, 4]: 2.4

Compound: C=CCOC(=O)COC1CCCCC1 [(CYCLOHEXYLOXY)-ACETIC ACID-2-PROPENYL ESTER]
- Increase In intensity [1, 3]: −0.5
- Odour reduction value [1, 3]: 4.3

Compound: O=C1CCCCCCCCC/C=C/CCCO1
- Increase In intensity [1, 3]: 0.0
- Odour reduction value [1, 3]: 4.0

Compound: CC/C=C/CCOC(C)=O [ACETIC ACID-3(E)-HEXENYL ESTER]
- Increase In intensity [1, 3]: 1.3
- Odour reduction value [1, 3]: 3.1

Compound: CC(=O)O[C@H]1CC[C@H](C(C)(C)C)CC1 [ACETIC-TRANS-4-TERT.-BUTYL CYCLOHEXYL ESTER]
- Increase In intensity [1, 3]: 0.2
- Odour reduction value [1, 3]: 5.1

Compound: C/C=C/C(=O)OC(C)C1CCCCC1 (stereo not shown) [CROTONIC ACID-1-CYCLOHEXYL ETHYL ESTER]
- Increase In intensity [1]: 0.8
- Odour reduction value [1]: 3.7

Compound: Cc1cccc(CC(C)(C)CO)c1
- Increase In intensity [1, 3]: 1.2
- Odour reduction value [1, 3]: 4.4

Compound: CC(=CCC1CCC=C(C)C1(C)C)CO (stereo not shown)
- Increase In intensity [1, 3]: 0.0
- Odour reduction value [1, 3]: 3.0

Compound: C=CCc1ccc(O)c(OC)c1 [EUGENOL]
- Increase In intensity [1, 3]: 0.7
- Odour reduction value [1, 3]: 6.0

Compound: CCCCCCCCCC(C)C=O (stereo not shown) [2-METHYLUNDECANAL]
- Increase In intensity [1, 3]: 0.7
- Odour reduction value [1, 3]: 3.2

Compound: CCCCCCCCC=O [NONANAL, reference compound]
- Increase in intensity [1, 10]: 2.1
- Malodour-reduction value [1, 10]: 3.0

Compound: CC(C)CCCC(C)CCO (stereo not shown) [3,7-DIMETHYL OCTANOL, reference compound]
- Increase in intensity [1, 10]: 2.2
- Malodour-reduction value [1, 10]: 4.0
- intrinsic odour / perfumistic impression (in words) [1, 11]: strong perfumistic impression
- reduction in the bad odour based on 3-mercapto-3-methyl-hexan-1-ol (in words) [1, 11]: leads to a malodour reduction

Compound: COC(=O)c1c(C)cc(O)c(C)c1O [2,4-DIHYDROXY-3.6-DIMETHYLBENZOIC ACID METHYL ESTER]
- Increase In intensity [1, 3]: 1.3
- Odour reduction value [1, 3]: 3.8

Compound: CC(=O)OCCC(C)C [ACETIC ACID-3-METHYLBUTYL ESTER]
- Increase In intensity [1, 3]: 1.3
- Odour reduction value [1, 3]: 5.8

Compound: COC1C=C2C(C)(C)C3CCC2(C3)C(C)(C)C1 (stereo not shown)
- Increase In intensity [1, 3]: 0.5
- Odour reduction value [1, 3]: 4.3

Compound: COC(=O)c1ccccc1N=CC(C)Cc1ccc(C(C)(C)C)cc1 (stereo not shown) [2-[[3-[4-1 1-DIMETHYLETHYL)PHENYL)-2-METHYLPROPLIDEN]AMINO]-BENZOIC ACID METHYL ESTER]
- Increase In intensity [1, 3]: −0.4
- Odour reduction value [1, 3]: 3.3

Compound: COC1CCCCCCCCCCC1 [CYCLODODECYL METHYL ETHER]
- Increase In intensity [1, 3]: 0.7
- Odour reduction value [1, 3]: 3.1

Compound: CCCCCCCC1CCC(=O)O1 (stereo not shown) [5-HEPTYL-2-DIHYDROFURANONE]
- Increase In intensity [1]: 1.1
- Odour reduction value [1]: 3.8

Compound: CC(=O)OCCc1ccccc1 [ACETIC ACID-2-PHENYLETHYL ESTER]
- Increase In intensity [1, 3]: 1.0
- Odour reduction value [1, 3]: 4.0

Compound: CC1OC(C)C2Cc3ccccc3C2O1 (stereo not shown)
- Increase In intensity [1, 3]: 1.1
- Odour reduction value [1, 3]: 4.1

Reference: patent US20070298994A1, “Use of 3-Mercapto-3-Methyl-Hexan-1-Ol for Use as Malodour Standard” (SYMRISE GMBH & CO. KG, priority 2004, published 2007)
